The text below walks through data of ChEMBL document CHEMBL3507680, “University of Dundee, Gates Library screen for HepG2 cell viability”.

The series can be described thus: Human HepG2 cell viability assay in 384 well format. Type of series: toxicity, cell-based. Details: dose 125 nL, time 70.5 hour; concentration not given beside the values. The settings on record: HepG2 cells, read-out: Inhibition.

`CCn1c(CN(C)C)nnc1C1CCN(Cc2cccc(C#N)c2)CC1`: the cytotoxicity at 70.5 h was -5.02%.
In the case of `CCC(C(=O)NCc1cc(N2CCOCC2)ncn1)n1cccn1` (stereo not given) it was -1.38%; in that of `Cn1cc(CN(Cc2cccc(-n3cccn3)c2)C2CC2)cn1`, 43.4%.
For `Cc1cc(C)nc(N2CCC(NCCSc3nnnn3C)CC2)n1` the value was 11.2%; for `Cc1ccc(C(C(=O)NCc2cc(C)[nH]n2)N(C)C)cc1` (stereo not given), -8.58%; for `CCc1ncc(C(=O)N2CCN(c3cnn(C)c(=O)c3)CC2)cn1`, -5.02%.
Consider `Cc1cnc(C)c(N2CCN(Cc3ccc(C)c(C)c3)CC2)n1`, for which the cytotoxicity at 70.5 h was determined as 3.81%.
For `CCN(CC)C(=O)[C@@H]1C[C@@H](n2cc(-c3cccc(OC)c3)nn2)CN1` the value was -15.1%; for `Cc1ccc(-c2ncc(C(=O)N3CCCC(CCN)C3)c(O)n2)cc1` (stereo not given), -7.81%; for `CC(=O)N1C[C@@H]2CC[C@H](C1)N(S(=O)(=O)c1ccc(F)cc1Cl)C2`, -6.08%.
For `CCCNS(=O)(=O)c1ccc(C(=O)NC(CC)c2cnn(C)c2)cc1` (stereo not given), the cytotoxicity at 70.5 h was -4.79%.
As for `CCc1nn(C)c(Cl)c1CN1CCN(c2nc(C(N)=O)cs2)CC1`, the cytotoxicity at 70.5 h is -3.53%.
For `CN1CCCNC(=O)C12CCN(C(=O)c1ccc3[nH]cnc3c1)CC2` the value was -3.14%; for `Cc1cc(C)n(CC(=O)N2Cc3cnc(C(C)(C)C)nc3C2)n1`, -4.01%.
With `CN(C)C[C@@H]1CN(C(=O)Cc2cccc(O)c2)C[C@@H]1CO`, the cytotoxicity at 70.5 h is -7.03%.
Turning to `Cc1ccsc1-c1nc(CN(C)Cc2noc(C(C)C)n2)c(C)o1`, the cytotoxicity at 70.5 h is -10.3%.
In the case of `CN1CC2(CCC1=O)CCN(CC[C@@H](O)c1ccccc1)CC2` it was 19.6%; in that of `Cc1cc(CN[C@@H](C)C(N)=O)c(C)s1`, -7.91%; in that of `CC(=O)Nc1ccc(-c2cn(CCn3c(C)cc(C)nc3=O)nn2)cc1`, -6.08%.
For `CCc1ccccc1OC1CN(C(=O)CN(C)Cc2cccnc2)C1`, the cytotoxicity at 70.5 h was 14%.
In the case of `CN1C[C@@H](NC(=O)c2cc(F)cc(F)c2)C[C@H]1C(=O)NCc1ncc[nH]1` it was -16.2%; in that of `COCCN1CCC2(CCC1=O)CN(C1CCOCC1)CCN2C` (stereo not given), -10.7%; in that of `Cc1ccc2nc(CNCCCN3CCCC3)cc(O)c2c1`, -9.2%.
In the case of `Cc1nn(CCNC(C)Cn2cncn2)c(C)c1Cl` (stereo not given) it was 7.1%; in that of `Cc1ccc(CN2CCCC(c3nnc(CN4CCCC4)n3C)C2)s1` (stereo not given), -0.483%.
For `Cc1ncsc1CN1C[C@H](NC(=O)C2CCOCC2)[C@@H](C(C)C)C1` the value was -14.2%; for `CCCN(Cc1nccn1C)C(=O)c1cc(C)nc(C)n1`, -9.67%; for `Cc1cccc(-c2nc(CN3CCOCS3(=O)=O)c(C)o2)c1`, -6.34%.
Turning to `CC(C)c1nc(CN(C)C(=O)CNS(=O)(=O)c2cccs2)cs1`, the cytotoxicity at 70.5 h was -6.67%.
For `Cc1cnccc1CN(C)C(=O)c1cccc(CCC(C)(C)O)c1` the value was -1.91%; for `Cc1cc(N(C)CCN(C)C)n2nc(C)cc2n1`, -1.46%; for `C=C(C)COc1ccccc1NC(=O)N1CCOCC1CO` (stereo not given), 7.4%.
In the case of `Cc1cc(F)ccc1CN1CCCC(O)(CN2CCCC2)C1` (stereo not given) it was -1.52%; in that of `COc1ccc(CC2(CO)CCN(c3cc(C(N)=O)ccn3)CC2)cc1`, -2.15%; in that of `COc1cc(F)ccc1C(C(=O)O)N(C)CCN1CCCC1` (stereo not given), 12.1%.
`COCc1cc(NCCCSc2nnc(C)s2)ncn1`: the cytotoxicity at 70.5 h is -6.65%.
In the case of `COc1cc(N2CCC(c3nccn3Cc3ccccn3)CC2)ncn1`, the cytotoxicity at 70.5 h is -4.99%.
For `O=C1OCCN1Cc1cc(C(F)(F)F)ccc1F` the value was -7.38%; for `CNc1cc(C)nc(N2C[C@@H](C(=O)O)[C@H](C3CC3)C2)n1`, -1.21%; for `Cc1c[nH]c(CN(C)C(C(=O)O)c2c(F)cccc2OC(C)C)n1` (stereo not given), 1.64%.
Regarding `CCN1CCCC1CNC(=O)c1cc(COc2cccc(F)c2)[nH]n1` (stereo not given), the cytotoxicity at 70.5 h amounted to 0.339%.
In the case of `CCCc1nc(C)cc(N2CCC3(CCC(=O)N(CC(N)=O)C3)CC2)n1` it was -8.54%; in that of `C=C(C)COc1ccccc1NC(=O)NC1CCOCC1`, 2.28%.
For the compound `Cc1ccccc1CN1CC[C@@]2(O)CCN(C(=O)C3CCC3)C[C@H]2C1`, the cytotoxicity at 70.5 h was found to be 2.03%.
For `CN(Cc1ccccc1)C(=O)CCN1C[C@H](C2CC2)[C@@H](N(C)C)C1` the value was -10.8%; for `c1ccc2c(c1)CC(CNCc1ccncc1)(N1CCCCC1)C2`, -4.17%.
For `CC(C)C(C)N(Cc1ccccn1)Cc1ccco1` (stereo not given) the value was -22.8%; for `Cc1nc(CN2CCCC(Cn3cncn3)C2)nc2ccccc12` (stereo not given), 19%.
For `Cc1cc(C)n(CC2CCCN2C(=O)c2cn[nH]c2C)n1` (stereo not given), the cytotoxicity at 70.5 h is -1.06%.
Take `Cc1nc(C)n(C2CCCN(C(=O)c3ccc4nccn4c3)C2)n1` (stereo not given): the cytotoxicity at 70.5 h was 22.7%.
For the compound `Cc1nc(C)n(C2CCCN(C(=O)c3ccc4[nH]nnc4c3)C2)n1` (stereo not given), the cytotoxicity at 70.5 h stood at 0.449%.
Turning to `Cc1cc(C)cc(CNC(c2ccccc2)c2nccn2C)c1` (stereo not given), the cytotoxicity at 70.5 h turned out to be 1.26%.
For `CCOc1ncccc1C(=O)N1CCCC1Cn1nc(C)cc1C` (stereo not given) the value was 5.47%; for `Cc1cc(C)n(CC2CCCN2C(=O)c2cccc(C#N)c2)n1` (stereo not given), -2.63%; for `Cc1nc(C)n(C2CCCN(C(=O)c3ccnc(N(C)C)c3)C2)n1` (stereo not given), -3.3%.
For `COc1cc(C(=O)N2CCCC2c2noc(C(C)C)n2)on1` (stereo not given) the value was -2.66%.
Regarding `Cc1cnn(CC2CCCN2c2ncnc3ccsc23)c1` (stereo not given), the cytotoxicity at 70.5 h worked out at 5.5%.
On to `c1ccc(Cc2nnc(CN3CCc4cncnc4C3)o2)cc1`, for which the cytotoxicity at 70.5 h is 1.25%.
Turning to `CC(=O)N(Cc1ncc(C)o1)C1CCN(Cc2nccn2C)C1` (stereo not given), the cytotoxicity at 70.5 h turned out to be 2.28%.
On to `CCc1noc(C)c1C(=O)NCC(c1ccc(C)cc1)N(C)C` (stereo not given), for which the cytotoxicity at 70.5 h was -3.99%.
As for `CC(=O)N(Cc1ncc(C(C)C)o1)C1CCN(CCC#N)C1` (stereo not given), the cytotoxicity at 70.5 h was -7%.
For `COc1ccccc1CC(=O)N1CCC(NCc2ccccn2)CC1` the value was 21%; for `C1CC(c2nnc(CN3CCCC3c3noc(C4CC4)n3)o2)C1` (stereo not given), -7.54%; for `Cc1ncc2c(n1)CN(Cc1nc(Cc3ccccc3)no1)CC2`, -8.87%.
Consider `CCc1ncc2c(n1)CN(Cc1nnc(Cc3ccccc3)o1)CC2`, for which the cytotoxicity at 70.5 h was -1.62%.
In the case of `c1cnc(-c2nc(CN3CCN(CC4CC4)CC3)cs2)nc1` it was -5.7%; in that of `O=C(c1ccc(Cn2ccccc2=O)o1)N1CCSCC1`, -8.03%; in that of `Cc1ccc(-c2nc(C(=O)N3CCOCC3)cs2)c(C)c1`, -12.3%.
For `O=C(Nc1ccc(CCN2CCOCC2)cc1)C1CCC1` the value was -3.21%; for `NC(=O)C1CCN(CCc2ccc(NC(=O)C3CC3)cc2)CC1`, -3.12%; for `O=C(NCc1csc(Br)c1)N1CCOCC1`, -4.76%.
On to `O=C(CCCNc1ncccn1)Nc1cc(C(F)(F)F)c[nH]c1=O`, for which the cytotoxicity at 70.5 h was -2.93%.
Regarding `CCOC(=O)c1sc2ccsc2c1CNC(=O)CCOC`, the cytotoxicity at 70.5 h was 16.3%.
For `CCc1nc2n(n1)CC(NCc1nc(-c3ccccn3)no1)CC2` (stereo not given) the value was -3.45%; for `CCOC(=O)c1sc2ccsc2c1CNC(=O)C(C)OC` (stereo not given), 3.36%.
For `CC(C)(C)OC(=O)N1CCN(C(=O)CCn2cccn2)CC1` the value was -4.56%; for `CCc1nnc(CN2CCc3cnc(C)nc3C2)o1`, -3.58%.
In the case of `CCc1ccccc1OCC(=O)N1CCOCC1c1ncon1` (stereo not given), the cytotoxicity at 70.5 h amounted to 28.4%.
Consider `CN(C)CC1CN(Cc2nnc(C(C)(C)C)o2)CCO1` (stereo not given), for which the cytotoxicity at 70.5 h worked out at 11.9%.
Regarding `O=C(CCCN1CCOC1=O)Nc1cnn(-c2ccccc2Cl)c1`, the cytotoxicity at 70.5 h was -5.24%.
As to `CCN1CCN(CCCNC(=O)NC(C)c2nncn2C)CC1` (stereo not given), the cytotoxicity at 70.5 h stood at 2.39%.
On to `CC(C)c1nc2c(n1C)CCN(Cc1nc(-c3cccnc3)no1)C2`, for which the cytotoxicity at 70.5 h was -11.9%.
In the case of `COc1c(CNCCNC(=O)c2ccccc2F)c(C)nn1C` it was -15.6%; in that of `O=C(CCN1CCOC1=O)Nc1cnn(-c2ccccc2Cl)c1`, -7.73%.
In the case of `COc1c(CNC2CCCOc3ccccc32)c(C(C)C)nn1C` (stereo not given) it was -4.69%; in that of `Cc1nc(C)c(C(=O)NCCNC(=O)Cc2ccc(F)cc2)s1`, 10.7%.
Take `CC(NC(=O)NCCCN1CCCC1)c1nncn1C` (stereo not given): the cytotoxicity at 70.5 h is -7.79%.
In the case of `NC(=O)C1CCN(C(=O)c2ccn(-c3cccc(F)c3)n2)C1` (stereo not given), the cytotoxicity at 70.5 h is -19.8%.
On to `NC(=O)C1CCN(C(=O)c2ccn(-c3cccc(Cl)c3)n2)C1` (stereo not given), for which the cytotoxicity at 70.5 h was -17.8%.
In the case of `CC(C)c1nc2c(n1C)CCN(Cc1nc(-c3ccoc3)no1)C2` it was -4.46%.
Consider `CCOc1cc(C)nc(N2CCN(C(=O)C(C)NC(C)=O)CC2)n1` (stereo not given), for which the cytotoxicity at 70.5 h was -1.89%.
For `CN(C)C(=O)c1cccc(CN2CCN(CC(O)C(C)(C)C)CC2)c1` (stereo not given) the value was -11.5%; for `Cc1ccoc1C(=O)N1CCCC(c2cc(C(F)(F)F)[nH]n2)C1` (stereo not given), -8.09%.
For `Cc1ccc(C(=O)NS(=O)(=O)c2cc(F)ccc2F)c(=O)[nH]1` the value was -13.1%; for `Cc1ccc(C)c(S(=O)(=O)NC(=O)c2ccc(C)[nH]c2=O)c1`, -4.64%; for `Cc1ccc(C(=O)NS(=O)(=O)c2cc(Br)ccc2C)c(=O)[nH]1`, -7.4%.
In the case of `O=C(CCc1cccc(Cl)c1Cl)N1CCOCC1c1ncon1` (stereo not given) it was -1.88%; in that of `COc1c(CNC2CCCOc3ccc(F)cc32)c(C(C)C)nn1C` (stereo not given), -4.87%; in that of `COc1cc(CNCC(O)c2ccc(C)cc2)cc2c1OCO2` (stereo not given), -2.01%.
For `COc1cc(CNCC(O)c2cccc(F)c2)cc2c1OCO2` (stereo not given), the cytotoxicity at 70.5 h came out at 1.4%.
